# Results reported in PubChem BioAssay AID1213 (NMMLSC, 2008).
# Inconclusive results are not listed. The source made the active and inactive calls.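 The calls were made as follows: active = compound giving calcium release at least equal to the estrogen response, or cutting estrogen-driven calcium release by 60% or more; inconclusive = compound glowing brighter than the detergent maximum; inactive = the rest.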
# Target: G-protein coupled estrogen receptor 1 (Homo sapiens) (UniProt Q99527)
# Assay: GPR30 agonists and antagonists by calcium flux, primary screen, HL-60 cells, Indo-1 fluorescence, 10 µM (AID 1213)
# Conditions: Indo-1 calcium mobilization, at 10 µM, stronger effect = higher value
row,SMILES,calcium mobilization (agonist)
1,C[C@]12CC[C@@H]3c4ccc(O)cc4[C@@H](O)C[C@H]3[C@@H]1CC[C@@H]2O,0% (inactive)
2,O=S(=O)(NCCc1csc(-c2cccnc2)n1)c1ccc(Cl)s1,100%
3,O=C(O)C1Nc2c(O)cc(Cl)c([N+](=O)[O-])c2C2C=CCC12 (centres undefined),0% (inactive)
4,Fc1ccc2c(c1)[C@H]1OCC[C@H]1[C@@H](c1ccco1)N2,100%
5,CC(=O)c1ccc2c(c1)C1C(Cl)C(Sc3ccccc3[N+](=O)[O-])CC1C(c1ccccc1)N2 (centres undefined),0% (inactive)
6,COc1ccc(CNC(=O)c2cc(-c3cccs3)on2)cc1,0% (inactive)
7,Cc1nnc(SCC(=O)NC(=O)NCc2ccco2)n1Cc1ccccc1,0% (inactive)
8,Cc1cc(C)c2c(c1)NC(c1cc3c(cc1Br)OCO3)C1CC=CC21 (centres undefined),50% (inactive)
9,COc1ccc2c(c1)C1C=CCC1C(c1cc3c(cc1Br)OCO3)N2 (centres undefined),100%
10,O=C(O)c1cc(Cl)c2c(c1)[C@@H]1C=CC[C@@H]1[C@H](c1ccc(S(=O)(=O)N3CCOCC3)cc1)N2,0% (inactive)
11,O=C(O)c1ccc(NS(=O)(=O)c2ccc3c(c2)C2C=CCC2C(c2ccccc2F)N3)cc1 (centres undefined),0% (inactive)
12,Cc1ccc2c(c1)[C@H]1OCC[C@H]1[C@@H](c1ccncc1)N2,0% (inactive)
13,CCn1nnc(NC(=O)CSc2ccc(Cl)cc2)n1,0% (inactive)
14,Fc1ccc2c(c1)C1C=CCC1C(c1cc3c(cc1Br)OCO3)N2 (centres undefined),100%
15,Cc1cc(C)cc(OCC(=O)Nc2ccc(N3CCCC3)cc2)c1,0% (inactive)
16,O=C(O)C1Nc2c(O)cccc2C2C=CCC12 (centres undefined),50% (inactive)
17,C[C@H]1CCC[C@@H](O)CCC/C=C/c2cc(O)cc(O)c2C(=O)O1,50% (inactive)
18,CC(=O)c1ccc2c(c1)C1C=CCC1C(C(=O)O)N2 (centres undefined),0% (inactive)
19,O=C(O)c1ccc(Cl)c2c1C1C=CCC1C(c1ccccn1)N2 (centres undefined),50% (inactive)
20,CCCCCCNC(=O)c1cc(-c2ccco2)nc2ccccc12,0% (inactive)
21,Cc1cc(C(=O)Nc2sc3c(c2C#N)CCC3)no1,0% (inactive)
22,Cc1ccc2c(c1)C1C=CCC1C(C(=O)O)N2 (centres undefined),0% (inactive)
23,CC(C)C1Nc2ccc(C(=O)O)cc2C2C=CCC21 (centres undefined),0%
24,Cc1c(Cl)cccc1NS(=O)(=O)c1ccc2c(c1)C1C=CCC1C(c1ccc(C(=O)O)cc1)N2 (centres undefined),0%
25,C[C@]12CC[C@@H]3c4ccc(O)cc4C(=O)C[C@H]3[C@@H]1CC[C@@H]2O,0% (inactive)

row,SMILES,calcium mobilization (agonist)
1,Nc1ncnc2c1ncn2C1CCC(CO)C(O)C1 (centres undefined),0% (inactive)
2,O=C1NC(c2ccc(Br)cc2)Nc2sc3c(c21)CCC3 (centres undefined),50% (inactive)
3,COc1cccc(NS(=O)(=O)c2ccc3c(c2)C2C=CCC2C(c2ccc(C(=O)O)cc2)N3)c1 (centres undefined),0%
4,Cc1ccc2c(c1C)NC(C(=O)O)C1CC=CC21 (centres undefined),0%
5,O=C(COC(=O)CCC(=O)c1cccs1)NCc1ccco1,0% (inactive)
6,CC(C)c1ccc2c(c1)[C@H]1OCC[C@H]1[C@@H](c1cccs1)N2,0% (inactive)
7,COc1cc(C2Nc3c(F)cccc3C3C=CCC32)cc(Br)c1OC (centres undefined),0% (inactive)
8,CCc1ccc2c(c1)[C@H]1OCC[C@H]1[C@@H](c1cccs1)N2,50% (inactive)
9,Cc1ccc2c(c1Cl)NC(C(=O)O)C1CC(Sc3ccccc3[N+](=O)[O-])C(Cl)C21 (centres undefined),0%
10,COc1ccc(OC)c(C2Nc3c(Cl)ccc(C(=O)O)c3C3C=CCC32)c1 (centres undefined),50% (inactive)
11,Cc1cc([N+](=O)[O-])c2c(c1C)C1C=CCC1C(c1ccccn1)N2 (centres undefined),0% (inactive)
12,CC(=O)Nc1ccc(OC(=O)CC2SC(=O)NC2=O)cc1 (centres undefined),0% (inactive)
13,CC(C)C1Nc2c(O)cc(Cl)c([N+](=O)[O-])c2C2C=CCC21 (centres undefined),100%
14,O=C(OC1CCCCC1)c1ccc2c(c1)C1C=CCC1C(C(=O)O)N2 (centres undefined),0% (inactive)
15,CCNC(=O)c1ccc2c(c1)C1C3CCC(C3)C1C(c1ccccc1)N2 (centres undefined),100%
16,CC(C)(C)NC(=O)c1ccc2c(c1)C1C3CCC(C3)C1C(c1ccccc1)N2 (centres undefined),100%
17,Cc1cc(C)c2c(c1)[C@@H]1C=CC[C@@H]1[C@H](c1ccc(S(=O)(=O)N3CCOCC3)cc1)N2,0%
18,CCCCOC(=O)c1c(C)oc2ccc(NS(=O)(=O)c3ccc4c5c(cccc35)C(=O)N4)cc12,0% (inactive)
19,FC(F)(F)c1ccc2c(c1)C1C=CCC1C(c1ccncc1)N2 (centres undefined),0% (inactive)
20,O=C(Cc1cccs1)Nc1ccc(S(=O)(=O)Nc2ncccn2)cc1,0% (inactive)
21,COc1cccc2c1NC(C(=O)O)C1CC=CC21 (centres undefined),0% (inactive)
22,CC(=O)c1ccc2c(c1)C1C=CCC1C(c1ccc(S(=O)(=O)N3CCOCC3)cc1)N2 (centres undefined),100%
23,O=C(c1cc2ncc(Br)cn2n1)N1CCN(C(=O)c2ccco2)CC1,0% (inactive)
24,Cn1ccnc1SCC(=O)Nc1ccc2nc(SCC(=O)NC3CC3)sc2c1,0% (inactive)
25,Cc1nn(-c2ccccc2)c(/N=C/c2ccc(O)cc2)c1-c1ccccc1,0% (inactive)

row,SMILES,calcium mobilization (agonist)
1,CCC(=O)Oc1ccc(/C(CC)=C(\CC)c2ccc(OC(=O)CC)cc2)cc1,0% (inactive)
2,Cc1cc(-c2nn3c(-c4ccccc4)nnc3s2)c2ccccc2n1,0% (inactive)
3,COc1cccc(C2Nc3c(F)cc(Br)cc3C3C=CCC32)c1OC (centres undefined),0% (inactive)
4,CCCNC(=O)c1ccc2c(c1)C1C3CCC(C3)C1C(c1ccccc1)N2 (centres undefined),100%
5,CC(=O)N1c2ccc(Cl)cc2C2C=CCC2C1c1cccc2ccccc12 (centres undefined),100%
6,COc1ccc(NC(=O)C(c2ccccc2)N(C)C(=O)c2ccc(=O)[nH]c2)cc1 (centres undefined),0% (inactive)
7,O=C(NC1CC1)c1ccc2c(c1)C1C3CCC(C3)C1C(c1ccccc1)N2 (centres undefined),100%
8,Oc1ccc(-c2nc3ccc4ccccc4c3c3c2CCC3)cc1O,0% (inactive)
9,CCC(=O)Oc1ccc(C(CC)C(CC)c2ccc(OC(=O)CC)cc2)cc1 (centres undefined),0% (inactive)
10,CCCC1Nc2ccc(C(=O)O)cc2C2C=CCC12 (centres undefined),0% (inactive)
11,O=C(Nc1cc(C(F)(F)F)ccc1N1CCOCC1)C1Cc2ccccc2CN1C(=O)c1ccco1 (centres undefined),0% (inactive)
12,O=C(O)C1Nc2c(C(=O)N3CCOCC3)cccc2C2C=CCC12 (centres undefined),0% (inactive)
13,O=C(O)c1ccc2c(c1)C1C(Cl)C(Sc3ccccc3[N+](=O)[O-])CC1C(c1cccc([N+](=O)[O-])c1)N2 (centres undefined),0%
14,CCc1ccc(-c2nn(-c3ccccc3)cc2CSC(=N)N)cc1,50% (inactive)
15,O=C(O)c1ccc2c(c1)[C@@H]1C=CC[C@@H]1[C@H](c1ccccn1)N2,0% (inactive)
16,N=C1C(c2nc3ccccc3[nH]2)=C(O)CN1c1ccc(CC(=O)O)cc1,0% (inactive)
17,CCOC(=O)c1ccc2c(c1)C1C=CCC1C(C(=O)O)N2 (centres undefined),0% (inactive)
18,CC(=O)c1ccc2c(c1)C1C=CCC1C(c1ccncc1)N2 (centres undefined),100%
19,NS(=O)(=O)c1ccc2c(c1)C1C=CCC1C(C1CC=CCC1)N2 (centres undefined),0% (inactive)
20,CN(C)C(=O)c1ccc2c(c1)C1C3CCC(C3)C1C(c1ccccc1)N2 (centres undefined),100%
21,COc1ccc(C(=O)N/N=C(\C)c2ccc3c(c2)C2C=CCC2C(c2ccccc2)N3)cc1 (centres undefined),50% (inactive)
22,Oc1ccc(-c2nc(-c3ccc(O)c(O)c3)cs2)cc1,0% (inactive)
23,CC(C)C1Nc2ccc(S(N)(=O)=O)cc2C2C=CCC21 (centres undefined),0% (inactive)
24,O=C(O)c1ccc2c(c1)C1C=CCC1C(c1cc3c(cc1Br)OCO3)N2 (centres undefined),100%
25,CCc1nc2sc3ccccc3c(=O)c2c(=O)n1Cc1ccco1,0% (inactive)

# Same assay, conditions: Indo-1 calcium mobilization, measured here: antagonist mode response, at 10 µM
row,SMILES,inhibition of estrogen-induced calcium mobilization (higher = more inhibition)
1,O=C(O)c1ccc(NS(=O)(=O)c2ccc3c(c2)C2C=CCC2C(c2ccccc2F)N3)cc1 (centres undefined),50%
2,Cc1ccc2c(c1)[C@H]1OCC[C@H]1[C@@H](c1ccncc1)N2,50%
3,Cc1ccc2c(c1)C1C=CCC1C(C(=O)O)N2 (centres undefined),50%
4,CC(C)C1Nc2ccc(C(=O)O)cc2C2C=CCC21 (centres undefined),100%
5,Cc1c(Cl)cccc1NS(=O)(=O)c1ccc2c(c1)C1C=CCC1C(c1ccc(C(=O)O)cc1)N2 (centres undefined),100%
6,O=C1NC(c2ccc(Br)cc2)Nc2sc3c(c21)CCC3 (centres undefined),50%
7,COc1cccc(NS(=O)(=O)c2ccc3c(c2)C2C=CCC2C(c2ccc(C(=O)O)cc2)N3)c1 (centres undefined),100%
8,Cc1ccc2c(c1C)NC(C(=O)O)C1CC=CC21 (centres undefined),100%
9,Cc1ccc2c(c1Cl)NC(C(=O)O)C1CC(Sc3ccccc3[N+](=O)[O-])C(Cl)C21 (centres undefined),100%
10,Cc1cc(C)c2c(c1)[C@@H]1C=CC[C@@H]1[C@H](c1ccc(S(=O)(=O)N3CCOCC3)cc1)N2,100%
11,FC(F)(F)c1ccc2c(c1)C1C=CCC1C(c1ccncc1)N2 (centres undefined),50%
12,CCC(=O)Oc1ccc(/C(CC)=C(\CC)c2ccc(OC(=O)CC)cc2)cc1,50%
13,O=C(O)c1ccc2c(c1)C1C(Cl)C(Sc3ccccc3[N+](=O)[O-])CC1C(c1cccc([N+](=O)[O-])c1)N2 (centres undefined),100%
14,COc1ccc(C(=O)N/N=C(\C)c2ccc3c(c2)C2C=CCC2C(c2ccccc2)N3)cc1 (centres undefined),50%
